Assay results from article PMC10997755, “Discovery of a small-molecule inhibitor that traps Polθ on DNA and synergizes with PARP inhibitors” (Nature Communications, 2024).
Where “and” joins values, the source holds several entries; their conditions need not be identical. Identical values can stand only once. Entries after “also recorded” stand apart in the source; their conditions may differ.

Legend:
Type in all cases: biochemical
KpnI = biological target: T1, KpnI (Klebsiella pneumoniae, UniProt P25237); assay: KpnI cleavage control in the absence of Polθ-pol; conditions: for cleavage %: KpnI; for inhibition of KpnI activity: absence of Polθ-pol; for % cleavage: compound 10 µM
T1 construct: purchased New England Biolabs
T1 sequence (P25237 1-218): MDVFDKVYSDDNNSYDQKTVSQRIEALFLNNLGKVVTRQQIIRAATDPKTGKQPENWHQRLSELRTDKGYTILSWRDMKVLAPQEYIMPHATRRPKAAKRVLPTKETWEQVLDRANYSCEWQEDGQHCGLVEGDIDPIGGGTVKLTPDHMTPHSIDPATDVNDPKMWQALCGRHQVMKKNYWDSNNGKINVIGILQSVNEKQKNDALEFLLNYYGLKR
Description: (§1) EcoRI and KpnI endonucleases assay: 25 nM 5’-^32P radiolabeled primer-template DNA Sc15-EcoRI (5’-^32P LM3-EcoRI/LM4-EcoRI) or Sc19-KpnI (5’-^32P LM11-Kpn/LM12-Kpn) in reaction buffer (25 mM Tris-HCl pH 7.5, 10 mM MgCl2, 10% glycerol, 0.1 mg/mL BSA, 0,01% igepal, 1 mM DTT) were incubated in the presence or in the absence of 50 nM Polθ-pol, 100 μM ddCTP, and 10 μM inhibitors, as indicated, for 5 min at room temperature. Next, 0.08 U/μL EcoRI or KpnI together with 500 nM “trapping” DNA Sc14 (RP559/RP702) were added and incubated for further 0–40 min at 30 °C as indicated. 10 nM PolθΔcen and FL-Polθ and 25 nM Sc15-EcoRI and Sc19-Kpn were probed with 0.04 U/μL EcoRI or KpnI (both from New England Biolabs) using the same conditions. Reactions were stopped by addition of formamide loading buffer with 50 mM EDTA, resolved in denaturing 20% urea PAAG and analyzed using Typhoon PhosphorImager (GE Amersham). Quantification was done in ImageQuant TL software. All quantified experiments were performed in triplicates and plotted as mean with ± s.d using GraphPad Prism 9 software.

Polθ-pol:DNA/DNA complex [1] = biological target: T2, Polθ-pol:DNA/DNA complex (Homo sapiens, UniProt O75417); assay: EcoRI endonuclease protection assay; conditions: for EcoRI cleavage %, ave / EcoRI cleavage %, replicates #1-#3: Eco+pol+ddC+RTx compound; for cleavage normalized to 100%, i: 14 nt i; for cleavage normalized to 100%, i+1: 15 nt i+1; for i (%) (14 nt), replicates #1-#3 / i (%), normalized to 100%, ave(%) / i+1 (%) (15 nt), replicates #1-#3 / i+1 (%) normalized to 100%, ave(%): pol+ddC+compound;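 as to i+1 (%) (15 nt), replicates #1-#3: i+1 is one-nucleotide extended DNA within post-catalytic complexes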
T2 construct: purified recombinant human Polθ-pol (comprising amino acid residues 1792–2590); made in house
T2 sequence (O75417 1792-2590): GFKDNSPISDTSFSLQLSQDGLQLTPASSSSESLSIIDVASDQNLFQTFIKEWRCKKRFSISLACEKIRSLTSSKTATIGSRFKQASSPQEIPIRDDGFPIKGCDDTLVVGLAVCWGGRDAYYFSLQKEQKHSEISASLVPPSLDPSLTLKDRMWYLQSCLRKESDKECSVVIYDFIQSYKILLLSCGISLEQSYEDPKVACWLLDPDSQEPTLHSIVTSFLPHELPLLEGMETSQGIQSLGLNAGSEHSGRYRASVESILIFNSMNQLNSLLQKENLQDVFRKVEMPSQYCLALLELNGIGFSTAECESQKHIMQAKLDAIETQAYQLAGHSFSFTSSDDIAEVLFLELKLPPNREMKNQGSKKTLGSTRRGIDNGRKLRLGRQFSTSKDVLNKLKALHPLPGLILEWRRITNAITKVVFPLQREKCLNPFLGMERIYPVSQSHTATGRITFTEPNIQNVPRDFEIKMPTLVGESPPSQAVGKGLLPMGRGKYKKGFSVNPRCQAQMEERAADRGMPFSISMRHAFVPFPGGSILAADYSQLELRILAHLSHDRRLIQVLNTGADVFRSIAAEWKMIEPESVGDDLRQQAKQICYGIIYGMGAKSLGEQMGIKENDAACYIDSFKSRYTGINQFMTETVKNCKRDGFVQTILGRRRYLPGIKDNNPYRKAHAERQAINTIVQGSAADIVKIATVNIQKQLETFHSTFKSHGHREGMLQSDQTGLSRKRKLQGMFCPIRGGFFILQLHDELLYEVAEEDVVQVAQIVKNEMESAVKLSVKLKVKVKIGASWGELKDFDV
Description: as §1

EcoRI = biological target: T3, EcoRI (Escherichia coli, UniProt P00642); assay: EcoRI cleavage control in the absence of Polθ-pol; conditions: for cleavage %: EcoRI; for inhibition of EcoRI activity: absence of Polθ-pol; for % cleavage: compound 10 µM
T3 construct: purchased New England Biolabs
Description: as §1

Polθ-pol:DNA/DNA complex [2] = biological target: T2, Polθ-pol:DNA/DNA complex; assay: KpnI endonuclease protection assay; conditions: for trapping of post-catalytic complexes, different sequence context / i (%), normalized to 100%, ave(%) / i (%), replicates / i+1 (%) normalized to 100%, ave(%) / i+1 (%), replicates: KpnI; for i (%), normalized to 100%, ave(%) / i (%), replicates: 14 nt i; for i+1 (%) normalized to 100%, ave(%) / i+1 (%), replicates: 15 nt i+1
Description: as §1

T3 sequence (P00642 2-277 limits assumed): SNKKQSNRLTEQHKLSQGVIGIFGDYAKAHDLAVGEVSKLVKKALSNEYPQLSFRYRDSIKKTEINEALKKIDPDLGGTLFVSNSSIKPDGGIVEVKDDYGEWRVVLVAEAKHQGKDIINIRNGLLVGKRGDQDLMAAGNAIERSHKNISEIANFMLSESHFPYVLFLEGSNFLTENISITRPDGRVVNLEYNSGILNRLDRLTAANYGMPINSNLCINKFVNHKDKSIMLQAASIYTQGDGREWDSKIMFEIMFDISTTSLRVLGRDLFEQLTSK

## CN1CCN(c2cc(C(F)(F)F)cc(C(F)(F)F)c2OC(=O)N(C)c2ccc(F)cc2)C1=O [RTx-152]
KpnI; 3 min
  cleavage %: 21.3%
KpnI; 6 min
  cleavage %: 35.8%
KpnI
  inhibition of KpnI activity: resistant to inhibition
KpnI; cleavage 3 min
  % cleavage: 21%
KpnI; cleavage 6 min
  % cleavage: 36%
Polθ-pol:DNA/DNA complex [1]; 10 μM inhibitor, ddCTP
  suppression of EcoRI cleavage: strong suppression of endonuclease cleavage
  time Polθ-pol is trapped on DNA/DNA (EcoRI cleavage suppressed): > 40 min
Polθ-pol:DNA/DNA complex [1]; 2.5min
  EcoRI cleavage %, ave: 2.1%
  EcoRI cleavage %, replicates #1-#3: 3.0% and 2.0% and 1.2%
  i (%) (14 nt), replicates #1-#3: 25.8% and 27.6% and 28.2%
  i (%), normalized to 100%, ave(%): 100.0%
  i+1 (%) (15 nt), replicates #1-#3: 59.7% and 57.2% and 58.7%
  i+1 (%) normalized to 100%, ave(%): 100.0%
Polθ-pol:DNA/DNA complex [1]; 5min
  EcoRI cleavage %, ave: 2.5%
  EcoRI cleavage %, replicates #1-#3: 3.0% (2×) and 1.4%
  i (%) (14 nt), replicates #1-#3: 22.2% and 22.6% and 25.1%
  i (%), normalized to 100%, ave(%): 85.6%
  i+1 (%) (15 nt), replicates #1-#3: 63.6% and 59.1% and 62.1%
  i+1 (%) normalized to 100%, ave(%): 105.2%
Polθ-pol:DNA/DNA complex [1]; 10min
  EcoRI cleavage %, ave: 4.6%
  EcoRI cleavage %, replicates #1-#3: 5.0% (2×) and 3.7%
  i (%) (14 nt), replicates #1-#3: 15.4% and 16.3% and 17.9%
  i (%), normalized to 100%, ave(%): 60.8%
  i+1 (%) (15 nt), replicates #1-#3: 68.8% and 63.1% and 66.7%
  i+1 (%) normalized to 100%, ave(%): 113.1%
Polθ-pol:DNA/DNA complex [1]; pol+ddC+152, 0 min
  EcoRI cleavage %: 0.0%
Polθ-pol:DNA/DNA complex [1]; pol+ddC+152, 5 min
  EcoRI cleavage %: 3.0%
  cleavage normalized to 100%, i: 100.0%
  cleavage normalized to 100%, i+1: 100.0%
Polθ-pol:DNA/DNA complex [1]; pol+ddC+152, 10 min
  EcoRI cleavage %: 3.7%
  cleavage normalized to 100%, i: 75.0%
  cleavage normalized to 100%, i+1: 110.0%
Polθ-pol:DNA/DNA complex [1]; pol+ddC+152, 20 min
  EcoRI cleavage %: 5.7%
  cleavage normalized to 100%, i: 48.0%
  cleavage normalized to 100%, i+1: 119.0%
Polθ-pol:DNA/DNA complex [1]; pol+ddC+152, 40 min
  EcoRI cleavage %: 9.5%
  cleavage normalized to 100%, i: 25.0%
  cleavage normalized to 100%, i+1: 124.0%
EcoRI; 3 min
  cleavage %: 27.4%
EcoRI; 6 min
  cleavage %: 49.4%
EcoRI
  inhibition of EcoRI activity: resistant to inhibition; also recorded: do not inhibit
EcoRI; cleavage 3 min
  % cleavage: 27%
EcoRI; cleavage 6 min
  % cleavage: 49%
Polθ-pol:DNA/DNA complex [2]; Kpn+pol+ddC+RTx152, 2.5min
  KpnI cleavage %, ave: 0.358%
  KpnI cleavage %, replicates: 0.0% and 0.447% and 0.6%
Polθ-pol:DNA/DNA complex [2]; Kpn+pol+ddC+RTx152, 5min
  KpnI cleavage %, ave: 0.665%
  KpnI cleavage %, replicates: 0.321% and 0.8% and 0.9%
Polθ-pol:DNA/DNA complex [2]; Kpn+pol+ddC+RTx152, 10min
  KpnI cleavage %, ave: 2.1%
  KpnI cleavage %, replicates: 1.8% and 2.3% and 2.0%
Polθ-pol:DNA/DNA complex [2]
  trapping of post-catalytic complexes, different sequence context: identical trapping
Polθ-pol:DNA/DNA complex [2]; pol+ddC+152, 2.5 min
  i (%), normalized to 100%, ave(%): 100.0%
  i (%), replicates: 35.4% and 37.2% and 33.9%
  i+1 (%) normalized to 100%, ave(%): 100.0%
  i+1 (%), replicates: 53.1% and 50.1% and 54.1%
Polθ-pol:DNA/DNA complex [2]; pol+ddC+152, 5 min
  i (%), normalized to 100%, ave(%): 85.8%
  i (%), replicates: 30.7% and 32.1% and 28.6%
  i+1 (%) normalized to 100%, ave(%): 107.9%
  i+1 (%), replicates: 57.1% and 52.5% and 60.1%
Polθ-pol:DNA/DNA complex [2]; pol+ddC+152, 10 min
  i (%), normalized to 100%, ave(%): 63.7%
  i (%), replicates: 21.4% and 24.5% and 21.9%
  i+1 (%) normalized to 100%, ave(%): 120.8%
  i+1 (%), replicates: 62.6% and 62.1% and 65.2%

## CN(C(=O)Oc1c(N2CCN(CCO)C2=O)cc(C(F)(F)F)cc1C(F)(F)F)c1ccc(F)cc1 [RTx-161]
KpnI; 3 min
  cleavage %: 20.2%
KpnI; 6 min
  cleavage %: 33.3%
KpnI
  inhibition of KpnI activity: resistant to inhibition
KpnI; cleavage 3 min
  % cleavage: 20%
KpnI; cleavage 6 min
  % cleavage: 33%
Polθ-pol:DNA/DNA complex [1]; 10 μM inhibitor, ddCTP
  time Polθ-pol is trapped on DNA/DNA (EcoRI cleavage suppressed): > 10 min
Polθ-pol:DNA/DNA complex [1]; 2.5min
  EcoRI cleavage %, ave: 4.0%
  EcoRI cleavage %, replicates #1-#3: 5.8% and 3.2% and 4.2%
  i (%) (14 nt), replicates #1-#3: 25.2% and 24.9% and 24.6%
  i (%), normalized to 100%, ave(%): 100.0%
  i+1 (%) (15 nt), replicates #1-#3: 53.9% and 59.3% and 59.1%
  i+1 (%) normalized to 100%, ave(%): 100.0%
Polθ-pol:DNA/DNA complex [1]; 5min
  EcoRI cleavage %, ave: 6.0%
  EcoRI cleavage %, replicates #1-#3: 8.0% and 4.6% and 4.9%
  i (%) (14 nt), replicates #1-#3: 21.5% and 21.2% and 20.7%
  i (%), normalized to 100%, ave(%): 85.0%
  i+1 (%) (15 nt), replicates #1-#3: 55.1% and 61.3% and 62.4%
  i+1 (%) normalized to 100%, ave(%): 103.8%
Polθ-pol:DNA/DNA complex [1]; 10min
  EcoRI cleavage %, replicates #1-#3: 9.0% and 6.1% and 7.3%
  i (%) (14 nt), replicates #1-#3: 11.4% and 15.0% and 15.5%
  i (%), normalized to 100%, ave(%): 56.1%
  i+1 (%) (15 nt), replicates #1-#3: 66.5% and 64.8% and 64.7%
  i+1 (%) normalized to 100%, ave(%): 113.8%
EcoRI; 3 min
  cleavage %: 26.2%
EcoRI; 6 min
  cleavage %: 44.3%
EcoRI
  inhibition of EcoRI activity: resistant to inhibition; also recorded: do not inhibit
EcoRI; cleavage 3 min
  % cleavage: 26%
EcoRI; cleavage 6 min
  % cleavage: 44%
Polθ-pol:DNA/DNA complex [2]; Kpn+pol+ddC+RTx161, 2.5min
  KpnI cleavage %, ave: 0.667%
  KpnI cleavage %, replicates: 1.0% (2×) and 0.0%
Polθ-pol:DNA/DNA complex [2]; Kpn+pol+ddC+RTx161, 5min
  KpnI cleavage %, ave: 0.667%
  KpnI cleavage %, replicates: 1.0% (2×) and 0.0%
Polθ-pol:DNA/DNA complex [2]; Kpn+pol+ddC+RTx161, 10min
  KpnI cleavage %, ave: 1.7%
  KpnI cleavage %, replicates: 2.0% (2×) and 1.0%
Polθ-pol:DNA/DNA complex [2]
  trapping of post-catalytic complexes, different sequence context: identical trapping
Polθ-pol:DNA/DNA complex [2]; pol+ddC+161, 2.5 min
  i (%), normalized to 100%, ave(%): 100.0%
  i (%), replicates: 37.5% and 36.0% and 24.6%
  i+1 (%) normalized to 100%, ave(%): 100.0%
  i+1 (%), replicates: 53.1% and 51.8% and 59.1%
Polθ-pol:DNA/DNA complex [2]; pol+ddC+161, 5 min
  i (%), normalized to 100%, ave(%): 87.7%
  i (%), replicates: 33.9% and 31.6% and 20.7%
  i+1 (%) normalized to 100%, ave(%): 105.6%
  i+1 (%), replicates: 54.8% and 55.9% and 62.4%
Polθ-pol:DNA/DNA complex [2]; pol+ddC+161, 10 min
  i (%), normalized to 100%, ave(%): 67.8%
  i (%), replicates: 26.7% and 24.4% and 15.5%
  i+1 (%) normalized to 100%, ave(%): 114.7%
  i+1 (%), replicates: 61.3% and 62.1% and 64.7%
